{"source": "patent US10294202B2", "about": "“Pyrrolidinones as herbicides” (FMC Corporation, priority 2013, dated 2019)", "key": {"[1]": {"tested_on": "barnyardgrass", "assay": "Test A pre-/postemergence herbicide test", "format": "in vivo, Echinochloa crus-galli", "summary_of_the_method": "(§1)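 Approximately 10 days after treatment in the greenhouse, plants were compared with untreated controls and given a 0–100 visual injury rating. Applications: preemergence directed soil spray; postemergence on 2–10 cm plants at the one- to two-leaf stage.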"}, "[2]": {"tested_on": "velvetleaf", "assay": "Test A pre-/postemergence herbicide test", "format": "in vivo, Abutilon theophrasti", "summary_of_the_method": "as §1"}, "[3]": {"tested_on": "corn", "assay": "Test A pre-/postemergence herbicide test", "format": "in vivo, Zea mays", "summary_of_the_method": "as §1"}, "[4]": {"tested_on": "giant foxtail", "assay": "Test A pre-/postemergence herbicide test", "format": "in vivo, Setaria faberii", "summary_of_the_method": "as §1"}, "[5]": {"tested_on": "ducksalad", "assay": "Test B flooded paddy test", "format": "in vivo, Heteranthera limosa", "conditions": "250 g ai/ha, Flood; scale of 0 to 100 where 0 is no effect and 100 is complete control", "summary_of_the_method": "(§2)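 Plants grown to 2-leaf stage; pots flooded 3 cm above soil and compound applied directly into paddy water, depth held throughout. Visual rating against untreated controls after 13 to 15 days in greenhouse, 0 (no effect) to 100 (complete control).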"}, "[6]": {"tested_on": "barnyardgrass", "assay": "Test B flooded paddy test", "format": "in vivo, Echinochloa crus-galli", "conditions": "250 g ai/ha, Flood; scale of 0 to 100 where 0 is no effect and 100 is complete control", "summary_of_the_method": "as §2"}, "[7]": {"tested_on": "wheat", "assay": "Test A pre-/postemergence herbicide test", "format": "in vivo, Triticum aestivum", "summary_of_the_method": "as §1"}, "[8]": {"tested_on": "sedge, umbrella", "assay": "Test B flooded paddy test", "format": "in vivo, Cyperus difformis", "conditions": "250 g ai/ha, Flood; scale of 0 to 100 where 0 is no effect and 100 is complete control", "summary_of_the_method": "as §2"}, "[9]": {"tested_on": "crabgrass, large", "assay": "Test A pre-/postemergence herbicide test", "format": "in vivo, Digitaria sanguinalis", "summary_of_the_method": "as §1"}, "[10]": {"tested_on": "morningglory", "assay": "Test A pre-/postemergence herbicide test", "format": "in vivo, Ipomoea spp.", "summary_of_the_method": "as §1"}, "[11]": {"tested_on": "pigweed", "assay": "Test A pre-/postemergence herbicide test", "format": "in vivo, Amaranthus retroflexus", "summary_of_the_method": "as §1"}, "[12]": {"tested_on": "rice", "assay": "Test B flooded paddy test", "format": "in vivo, Oryza sativa", "conditions": "250 g ai/ha, Flood; scale of 0 to 100 where 0 is no effect and 100 is complete control", "summary_of_the_method": "as §2"}, "[13]": {"conditions": "Postemergence, 1000 g ai/ha, 0 to 100 scale (0 no effect, 100 complete control)"}, "[14]": {"conditions": "Preemergence, 1000 g ai/ha, visual rating on 0 to 100 scale (0 no effect, 100 complete control), approx. 10 days"}, "[15]": {"conditions": "Postemergence, 125 g ai/ha, 0 to 100 scale, 0 no effect, 100 complete control"}, "[16]": {"conditions": "Postemergence, 500 g ai/ha, 0 to 100 scale (0 no effect, 100 complete control)"}, "[17]": {"conditions": "Preemergence, 125 g ai/ha, visual rating on 0 to 100 scale (0 no effect, 100 complete control)"}, "[18]": {"conditions": "preemergence, 500 g ai/ha, 0 to 100 scale"}}}
{"smiles": "O=C1NCC(c2ccc(Cl)c(Cl)c2)C1C(=O)Nc1ccccc1[N+](=O)[O-]", "note": "(centres unmarked) [Compound 39]", "values": [{"measurement": "Plant response rating, Barnyardgrass", "setting": "[1]; [13]", "result": 50}, {"measurement": "Plant response rating, Barnyardgrass", "setting": "[1]; [14]", "result": 70}, {"measurement": "Plant response rating, Velvetleaf", "setting": "[2]; [13]", "result": 10}, {"measurement": "Plant response rating, Velvetleaf", "setting": "[2]; [14]", "result": 0}, {"measurement": "Plant response rating, Corn", "setting": "[3]; [13]", "result": 0}, {"measurement": "Plant response rating, Corn", "setting": "[3]; [14]", "result": 0}, {"measurement": "Plant response rating, Foxtail, Giant", "setting": "[4]; [13]", "result": 70}, {"measurement": "Plant response rating, Foxtail, Giant", "setting": "[4]; [14]", "result": 80}, {"measurement": "Plant response rating, Ducksalad", "setting": "[5]", "result": 0}, {"measurement": "Plant response rating, Barnyardgrass", "setting": "[6]", "result": 0}, {"measurement": "Plant response rating, Wheat", "setting": "[7]; [13]", "result": 40}, {"measurement": "Plant response rating, Wheat", "setting": "[7]; [14]", "result": 0}, {"measurement": "Plant response rating, Sedge, Umbrella", "setting": "[8]", "result": 0}, {"measurement": "Plant response rating, Crabgrass, Large", "setting": "[9]; [13]", "result": 80}, {"measurement": "Plant response rating, Crabgrass, Large", "setting": "[9]; [14]", "result": 90}, {"measurement": "Plant response rating, Morningglory", "setting": "[10]; [13]", "result": 10}, {"measurement": "Plant response rating, Morningglory", "setting": "[10]; [14]", "result": 0}, {"measurement": "Plant response rating, Pigweed", "setting": "[11]; [13]", "result": 50}, {"measurement": "Plant response rating, Pigweed", "setting": "[11]; [14]", "result": 0}, {"measurement": "Plant response rating, Rice", "setting": "[12]", "result": 0}]}
{"smiles": "O=C1NCC(c2ccc(Cl)c(Cl)c2)C1C(=O)Nc1ccccc1OC(F)(F)F", "note": "(racemic) [Compound 32]", "values": [{"measurement": "Plant response rating, Barnyardgrass", "setting": "[1]; [15]", "result": 0}, {"measurement": "Plant response rating, Barnyardgrass", "setting": "[1]; [16]", "result": 0}, {"measurement": "Barnyardgrass plant response rating", "setting": "[1]; [17]", "result": 0}, {"measurement": "Plant response rating, Barnyardgrass", "setting": "[1]; preemergence, 500 g ai/ha, 0 to 100 scale (0 no effect, 100 complete control)", "result": 0}, {"measurement": "Plant response rating, Velvetleaf", "setting": "[2]; [15]", "result": 0}, {"measurement": "Plant response rating, Velvetleaf", "setting": "[2]; [16]", "result": 0}, {"measurement": "Velvetleaf plant response rating", "setting": "[2]; [17]", "result": 0}, {"measurement": "Plant response rating, Velvetleaf", "setting": "[2]; [18]", "result": 0}, {"measurement": "Plant response rating, Corn", "setting": "[3]; [15]", "result": 0}, {"measurement": "Plant response rating, Corn", "setting": "[3]; [16]", "result": 0}, {"measurement": "Corn plant response rating", "setting": "[3]; [17]", "result": 0}, {"measurement": "Plant response rating, Corn", "setting": "[3]; [18]", "result": 0}, {"measurement": "Plant response rating, Foxtail, Giant", "setting": "[4]; [15]", "result": 0}, {"measurement": "Plant response rating, Foxtail, Giant", "setting": "[4]; [16]", "result": 40}, {"measurement": "Foxtail, Giant plant response rating", "setting": "[4]; [17]", "result": 70}, {"measurement": "Plant response rating, Foxtail, Giant", "setting": "[4]; [18]", "result": 80}, {"measurement": "Plant response rating, Ducksalad", "setting": "[5]", "result": 50}, {"measurement": "Plant response rating, Barnyardgrass", "setting": "[6]", "result": 0}, {"measurement": "Plant response rating, Wheat", "setting": "[7]; [15]", "result": 0}, {"measurement": "Plant response rating, Wheat", "setting": "[7]; [16]", "result": 0}, {"measurement": "Wheat plant response rating", "setting": "[7]; [17]", "result": 0}, {"measurement": "Plant response rating, Wheat", "setting": "[7]; [18]", "result": 0}, {"measurement": "Plant response rating, Sedge, Umbrella", "setting": "[8]", "result": 0}, {"measurement": "Plant response rating, Crabgrass, Large", "setting": "[9]; [15]", "result": 0}, {"measurement": "Plant response rating, Crabgrass, Large", "setting": "[9]; [16]", "result": 30}, {"measurement": "Crabgrass, Large plant response rating", "setting": "[9]; [17]", "result": 80}, {"measurement": "Plant response rating, Crabgrass, Large", "setting": "[9]; [18]", "result": 80}, {"measurement": "Plant response rating, Morningglory", "setting": "[10]; [15]", "result": 0}, {"measurement": "Plant response rating, Morningglory", "setting": "[10]; [16]", "result": 0}, {"measurement": "Morningglory plant response rating", "setting": "[10]; [17]", "result": 0}, {"measurement": "Plant response rating, Morningglory", "setting": "[10]; [18]", "result": 0}, {"measurement": "Plant response rating, Pigweed", "setting": "[11]; [15]", "result": 0}, {"measurement": "Plant response rating, Pigweed", "setting": "[11]; [16]", "result": 0}, {"measurement": "Pigweed plant response rating", "setting": "[11]; [17]", "result": 0}, {"measurement": "Plant response rating, Pigweed", "setting": "[11]; [18]", "result": 0}, {"measurement": "Plant response rating, Rice", "setting": "[12]", "result": 0}]}
